# Experiments:
# [1] = biological target: IDH1-R132H recombinant protein (Homo sapiens, UniProt O75874, R132H); test: IDH1-R132H enzymatic assay (NADPH consumption, diaphorase/resazurin readout); assay type: biochemical; details: 30 nM IDH1-R132H, inhibition of NADPH consumption; read-out: Enzyme IDH1 R132H IC50
# Method: (§1) IDH1-R132H and IDH1-R132C Enzymatic Assay
# (§2) Assays were performed in a 384-well black plate. An aliquot of 250 nL of compound was incubated with 10 μL of 30 nM IDH1-R132H or 10 nM IDH1-R132C recombinant protein in assay buffer (50 mM Tris pH=7.5, 150 mM NaCl, 5 mM MgCl2, 0.1% (w/v) Bovine Serum Albumin, and 0.01% Triton X-100) in each well at 25° C. for 15 minutes. After the plate was centrifuged briefly, an aliquot of 10 μL of 2 mM α-ketoglutarate and 20 μM NADPH solution prepared in assay buffer was then added to each well and the reaction was maintained at 25° C. for 45 minutes. An aliquot of 10 μL of diaphorase solution (0.15 U/mL diaphorase and 30 μM Resazurin in assay buffer) was added to each well. The plate was maintained at 25° C. for 15 minutes and then read on a plate reader with excitation and emission wavelengths at 535 nm and 590 nm, respectively. The IC50 of a given compound was calculated by fitting the dose response curve of inhibition of NADPH consumption at a given concentration with the four parameter logistic equation.
# [2] = biological target: T1, HCT116 isogenic IDH1-R132C mutant cells (Homo sapiens, UniProt O75874, R132C); test: Cellular 2-HG assay using HCT116 mutant IDH1 cells (R132C); assay type: cell-based; details: cellular 2-HG inhibition, 24 hours, RapidFire mass spectrometry
# T1 construct: HCT116 isogenic IDH1-R132H and IDH1-R132C mutant cells; endogenous in cells; host or cells: HCT116 isogenic IDH1-R132C mutant cells (kept under G418)
# Method: (§3) Cellular 2-HG Assay Using HCT116 Mutant IDH1 Cells
# (§4) HCT116 isogenic IDH1-R132H and IDH1-R132C mutant cells were cultured in growth media (McCoy's 5A, 10% fetal bovine serum, 1× antibiotic-antimycotic solution and 0.3 mg/mL G418) in 5% CO2 in an incubator at 37° C. To prepare the assay, cells were trypsinized and resuspended in assay media (McCoy's 5A with no L-glutamine, 10% fetal bovine serum, 1× antibiotic-antimycotic solution and 0.3 mg/mL G418). An aliquot of 10,000 cells/100 μL was transferred to each well of a clear 96-well tissue culture plate. The cells were incubated in 5% CO2 at 37° C. in an incubator overnight to allow for proper cell attachment. An aliquot of 50 μL of compound containing assay media were then added to each well and the assay plate was kept in 5% CO2 at 37° C. in an incubator for 24 hours. The media was then removed from each well and 150 μL of a methanol/water mixture (80/20 v/v) was added to each well. The plates were kept at −80° C. freezer overnight to allow for complete cell lysis. An aliquot of 125 μL of extracted supernatant was analyzed by RapidFire high-throughout-mass spectrometry (Agilent) to determine the cellular 2-HG level. The IC50 of a given compound was calculated by fitting the dose response curve of cellular 2-HG inhibition at a given concentration with the four parameter logistic equation
# [3] = biological target: IDH1-R132C recombinant protein (Homo sapiens, UniProt O75874, R132C); test: IDH1-R132C enzymatic assay (NADPH consumption, diaphorase/resazurin readout); assay type: biochemical; details: 10 nM IDH1-R132C, inhibition of NADPH consumption; read-out: Enzyme IDH1 R132C IC50
# Method: as §1, §2
# [4] = biological target: T2, HCT116 isogenic IDH1-R132H mutant cells (Homo sapiens, UniProt O75874, R132H); test: Cellular 2-HG assay using HCT116 mutant IDH1 cells (R132H); assay type: cell-based; details: cellular 2-HG inhibition, 24 hours, RapidFire mass spectrometry
# T2 construct: HCT116 isogenic IDH1-R132H and IDH1-R132C mutant cells; endogenous in cells; host or cells: HCT116 isogenic IDH1-R132H mutant cells (kept under G418)
# Method: as §3, §4
# T2 sequence (O75874 2-414 R132H limits assumed): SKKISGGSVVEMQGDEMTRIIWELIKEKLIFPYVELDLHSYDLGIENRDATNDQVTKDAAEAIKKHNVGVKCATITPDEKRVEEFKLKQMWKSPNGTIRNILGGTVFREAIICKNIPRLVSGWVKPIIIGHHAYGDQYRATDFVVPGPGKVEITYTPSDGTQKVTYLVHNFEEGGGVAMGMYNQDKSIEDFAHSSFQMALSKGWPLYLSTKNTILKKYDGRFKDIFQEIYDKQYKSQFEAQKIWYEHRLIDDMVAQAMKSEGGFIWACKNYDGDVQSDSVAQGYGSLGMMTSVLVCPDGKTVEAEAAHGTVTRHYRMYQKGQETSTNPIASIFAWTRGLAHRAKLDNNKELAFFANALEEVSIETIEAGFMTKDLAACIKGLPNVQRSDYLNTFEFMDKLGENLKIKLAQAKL
# Sequence of IDH1-R132H recombinant protein (O75874 whole entry R132H): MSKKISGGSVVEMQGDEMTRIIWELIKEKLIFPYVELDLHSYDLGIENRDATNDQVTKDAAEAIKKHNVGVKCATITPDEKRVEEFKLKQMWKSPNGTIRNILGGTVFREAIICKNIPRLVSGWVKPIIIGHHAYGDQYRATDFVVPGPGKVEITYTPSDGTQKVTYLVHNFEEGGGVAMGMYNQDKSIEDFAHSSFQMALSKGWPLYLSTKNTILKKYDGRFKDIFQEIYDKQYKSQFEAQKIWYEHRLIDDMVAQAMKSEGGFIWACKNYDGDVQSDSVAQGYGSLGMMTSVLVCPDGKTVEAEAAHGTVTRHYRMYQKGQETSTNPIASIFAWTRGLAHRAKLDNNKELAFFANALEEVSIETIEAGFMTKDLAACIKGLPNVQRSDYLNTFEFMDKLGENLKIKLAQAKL
# Sequence of IDH1-R132C recombinant protein (O75874 whole entry R132C): as the sequence (O75874 whole entry R132H) above, with H132C counted along it
# T1 sequence (O75874 2-414 R132C limits assumed): as the sequence (O75874 2-414 R132H limits assumed) above, with H131C counted along it
SMILES,IC50 [1] [µM],IC50 [2] [µM],IC50 [3] [µM],IC50 [4] [µM],melting point
"CC(Nc1ncc(C#N)s1)c1cc2cc(Cl)c(OCc3ccccn3)cc2[nH]c1=O (racemic) [Compound I-3, 2-((1-(6-chloro-2-oxo-7-(pyridin-2-ylmethoxy)-1,2-dihydroquinolin-3-yl)ethyl)amino)thiazole-5-carbonitrile]",< 0.1,< 0.1,0.1 to 1,0.1 to 1,–
"CCOC(=O)c1sc(N[C@@H](C)c2cc3cc(Cl)ccc3[nH]c2=O)nc1C [Compound I-9, (S)-ethyl 2-((1-(6-chloro-2-oxo-1,2-dihydroquinolin-3-yl)ethyl)amino)-4-methylthiazole-5-carboxylate]",1 to 10,–,–,–,–
"CC(Nc1ncc(C#N)s1)c1cc2cc(Cl)cnc2[nH]c1=O (stereo not drawn) [Compound I-6, 2-((1-(6-chloro-2-oxo-1,2-dihydro-1,8-naphthyridin-3-yl)ethyl)amino)thiazole-5-carbonitrile]",0.1 to 1,–,–,–,–
"C[C@H](Nc1ncc(C(N)=O)s1)c1cc2cc(Cl)ccc2[nH]c1=O [Compound I-10, (S)-2-((1-(6-Chloro-2-oxo-1,2-dihydroquinolin-3-yl)ethyl)amino)thiazole-5-carboxamide]",0.1 to 1,–,1 to 10,–,–
"COc1cc2[nH]c(=O)c(C(C)Nc3ncc(C#N)s3)cc2cc1Cl (stereo not drawn) [Compound I-2, 2-((1-(6-chloro-7-methoxy-2-oxo-1,2-dihydroquinolin-3-yl)ethyl)amino)thiazole-5-carbonitrile]",< 0.1,0.1 to 1,0.1 to 1,< 0.1,–
"Cc1nc(N[C@@H](C)c2cc3cc(Cl)ccc3[nH]c2=O)sc1C#N [Compound I-7, (S)-2-((1-(6-chloro-2-oxo-1,2-dihydroquinolin-3-yl)ethyl)amino)-4-methylthiazole-5-carbonitrile]",< 0.1,0.1 to 1,0.1 to 1,< 0.1,–
"CC(=O)Nc1cnc(N[C@@H](C)c2cc3cc(Cl)ccc3[nH]c2=O)s1 [Compound I-8, (S)-N-(2-((1-(6-chloro-2-oxo-1,2-dihydroquinolin-3-yl)ethyl)amino)thiazol-5-yl)acetamide]",1 to 10,–,> 10,–,–
"C[C@H](Nc1ncc(C#N)s1)c1cc2cc(Cl)ccc2[nH]c1=O [Compound I-1, (S)-2-((1-(6-chloro-2-oxo-1,2-dihydroquinolin-3-yl)ethyl)amino)thiazole-5-carbonitrile]",< 0.1,0.1 to 1,0.1 to 1,0.1 to 1,211 to 213 °C (dec.)
"Cc1nc(N[C@@H](C)c2cc3cc(Cl)ccc3[nH]c2=O)sc1C(N)=O [Compound I-11, (S)-2-((1-(6-chloro-2-oxo-1,2-dihydroquinolin-3-yl)ethyl)amino)-4-methylthiazole-5-carboxamide]",< 0.1,0.1 to 1,0.1 to 1,< 0.1,–
"C[C@H](Nc1ncc(C#N)s1)c1cc2cc(Cl)c(OCc3ccccn3)cc2[nH]c1=O [Compound I-4, (S)-2-((1-(6-chloro-2-oxo-7-(pyridin-2-ylmethoxy)-1,2-dihydroquinolin-3-yl)ethyl)amino)thiazole-5-carbonitrile]",< 0.1,< 0.1,< 0.1,< 0.1,–
"C[C@@H](Nc1ncc(C#N)s1)c1cc2cc(Cl)c(OCc3ccccn3)cc2[nH]c1=O [Compound I-5, (R)-2-((1-(6-chloro-2-oxo-7-(pyridin-2-ylmethoxy)-1,2-dihydroquinolin-3-yl)ethyl)amino)thiazole-5-carbonitrile]",0.1 to 1,–,1 to 10,–,–

# The next lines start with results.
IC50 [1] [µM],IC50 [2] [µM],IC50 [3] [µM],IC50 [4] [µM],SMILES,melting point
> 10,–,–,–,"C[C@H](Nc1nsc(N2CCOC2=O)n1)c1cc2cc(Cl)ccc2[nH]c1=O [Compound I-12, 6-chloro-3-[(1S)-1-{[5-(2-oxo-1,3-oxazolidin-3-yl)-1,2,4-thiadiazol-3-yl]amino}ethyl]-1,2-dihydroquinolin-2-one]",–
> 10,–,–,–,"COc1ccc2[nH]c(=O)c(CNc3nc(C)c(C)s3)cc2c1 [Compound I-17, 3-{[(dimethyl-1,3-thiazol-2-yl)amino]methyl}-6-methoxy-1,2-dihydroquinolin-2-one]",–
> 10,–,–,–,"CCc1c(C)sc(NCc2cc3cc(Cl)ccc3[nH]c2=O)c1C#N [Compound I-16, 2-{[(6-chloro-2-oxo-1,2-dihydroquinolin-3-yl)methyl]amino}-4-ethyl-5-methylthiophene-3-carbonitrile]",–
1 to 10,–,–,–,"O=c1[nH]c2ccc(Cl)cc2cc1CNc1nc(-c2ccccn2)cs1 [Compound I-13, 6-chloro-3-({[4-(pyridin-2-yl)-1,3-thiazol-2-yl]amino}methyl)-1,2-dihydroquinolin-2-one]",–
1 to 10,–,–,–,"O=c1[nH]c2ccc(Cl)cc2cc1CNc1nc(-c2ccc(F)c(F)c2)cs1 [Compound I-14, 6-chloro-3-({[4-(3,4-difluorophenyl)-1,3-thiazol-2-yl]amino}methyl)-1,2-dihydroquinolin-2-one]",–
> 10,–,–,–,"COc1ccc2[nH]c(=O)c(CNc3nc4ccccc4s3)cc2c1 [Compound I-15, 3-{[(1,3-benzothiazol-2-yl)amino]methyl}-6-methoxy-1,2-dihydroquinolin-2-one]",–

# — patent US9624216B2, “Quinolinone five-membered heterocyclic compounds as mutant-isocitrate dehydrogenase inhibitors” (Forma Therapeutics, Inc., priority 2015, dated 2017)
